Assay results taken from patent publication US7718641B2, “Pyrrolo [3,4-H] isoquinoline compounds and methods for modulating gated ion channels” (Aros Pharma ApS, priority 2005, dated 2010).

Legend:
heteromeric hASIC1a+3 = target: T1, heteromeric hASIC1a+3 (Homo sapiens, UniProt P78348+Q9UHC3); experiment: Whole-cell patch clamp of HEK293 cells co-expressing hASIC1a and hASIC3; format: cell-based; design: expressed in transfected cells; host or cells: HEK293; conditions: 10 μM, HEK293, -60 mV, pH 7.4 to pH 6.5 for 5 sec, n=3
T1 sequence (P78348 1-528): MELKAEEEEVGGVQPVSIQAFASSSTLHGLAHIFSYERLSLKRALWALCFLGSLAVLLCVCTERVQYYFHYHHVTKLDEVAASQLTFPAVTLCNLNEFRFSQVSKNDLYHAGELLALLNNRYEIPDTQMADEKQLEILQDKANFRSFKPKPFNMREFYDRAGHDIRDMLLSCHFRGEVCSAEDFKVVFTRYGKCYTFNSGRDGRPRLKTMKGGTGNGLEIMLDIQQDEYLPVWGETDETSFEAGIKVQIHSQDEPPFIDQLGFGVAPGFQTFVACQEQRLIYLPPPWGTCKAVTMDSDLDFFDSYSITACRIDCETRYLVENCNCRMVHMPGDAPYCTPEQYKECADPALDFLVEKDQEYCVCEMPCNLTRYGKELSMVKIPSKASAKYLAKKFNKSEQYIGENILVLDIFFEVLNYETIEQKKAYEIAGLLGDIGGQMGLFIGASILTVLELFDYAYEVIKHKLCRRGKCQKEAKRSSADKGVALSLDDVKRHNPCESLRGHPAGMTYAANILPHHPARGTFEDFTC
T1 sequence (Q9UHC3 1-531): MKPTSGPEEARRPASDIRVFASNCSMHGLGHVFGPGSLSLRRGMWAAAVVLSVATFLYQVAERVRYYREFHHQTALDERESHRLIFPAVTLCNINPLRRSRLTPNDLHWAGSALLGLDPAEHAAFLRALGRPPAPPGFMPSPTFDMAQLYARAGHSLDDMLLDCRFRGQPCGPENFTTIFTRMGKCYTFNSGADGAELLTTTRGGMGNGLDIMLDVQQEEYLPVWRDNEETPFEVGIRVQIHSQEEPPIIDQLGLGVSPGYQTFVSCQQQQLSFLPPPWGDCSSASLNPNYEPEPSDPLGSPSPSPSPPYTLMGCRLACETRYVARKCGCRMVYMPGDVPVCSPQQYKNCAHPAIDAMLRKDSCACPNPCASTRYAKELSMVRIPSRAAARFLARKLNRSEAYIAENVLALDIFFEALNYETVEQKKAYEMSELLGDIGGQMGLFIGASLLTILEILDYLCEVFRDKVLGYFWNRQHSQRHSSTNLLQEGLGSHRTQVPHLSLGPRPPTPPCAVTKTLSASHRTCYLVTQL
Experimental: HEK293 cells were transfected either with hASIC1a alone or co-transfected with hASIC1a and hASIC3. Acid-induced inward currents were recorded in the presence and absence of compound A (10 μM) using the whole-cell configuration of the patch-clamp method (voltage clamp mode).
(§1) All experiments are performed at room temperature (20-25° C.) in voltage clamp using conventional whole cell patch clamp methods (Neher, E., et al. (1978) Pfluegers Arch 375:219-228).
Coverslips with the cells are transferred to a 15 μl experimental chamber mounted on the stage of an inverted microscope (IMT-2, Olympus) supplied with Nomarski optics. […] The cells are held at a holding voltage of −60 mV and at the start of each experiment the current is continuously measured for 45 s to ensure a stable baseline. […] Current amplitudes are measured at the peak of the responses, and effect of the compounds is calculated as the amplitude at compound equilibrium divided by the amplitude of the current evoked by the pulse just before the compound was included. […]
FIGS. 4A and 4B show response to acidic saline in the absence or presence of 10 μM of Compound A recorded from HEK293 cells expressing either hASIC1a alone or HEK293 cells co-expressing hASIC1a and hASIC3 [voltage clamped at −60 mV, extracellular solution surrounding cells was changed rapidly from pH 7.4 to pH 6.5 for 5 sec] […]

hASIC1a = target: T2, hASIC1a (Homo sapiens, UniProt P78348); experiment: Whole-cell voltage clamp of pH-evoked response of human ASIC1a stably transfected in CHO cells; format: cell-based; design: expressed in transfected cells; conditions: CHO cells
T2 sequence (P78348 1-528): T1 sequence (P78348 1-528)
Experimental: FIG. 3 illustrates the inhibitory effect of Compound A on acid-evoked activation of human ASIC1a stably transfected in CHO cells. […] In this example, the size of the pH-evoked response was determined by measuring the area under the curve of the response (total charge transfer) and normalized to the control response. FIG. 3B depicts an example of an hASIC1a current (whole cell voltage clamp, −60 mV) evoked by a pH 6.8-buffered solution (from pH 7.4) in the presence or absence of Compound A (3 μM).
These endogenous proton-activated inward currents were recorded in the presence and absence of Compound J (1 μM) or Compound K (1 μM) using the whole cell configuration of the patch clamp method (voltage clamp mode).
as §1
Coverslips with the cells are transferred to a 15 μl experimental chamber mounted on the stage of an inverted microscope (IMT-2, Olympus) supplied with Nomarski optics. Cells are continuously superfused with extracellular saline at a rate of 2.5 ml/min. After giga-seal formation, the whole cell configuration is attained by suction. The cells are held at a holding voltage of −60 mV and at the start of each experiment the current is continuously measured for 45 s to ensure a stable baseline. Solutions of low pH (<7) are delivered to the chamber through a custom-made gravity-driven flowpipe, the tip of which is placed approximately 50 μm from the cell. Application is triggered when the tubing connected to the flowpipe is compressed by a valve controlled by the Pulse-software. Initially, low pH (in general, pH 6.5) is applied for 5 s every 60 s. The sample interval during application is 5501s. After stable responses are obtained, the extracellular saline as well as the low-pH solution are switched to solutions containing the compound to be tested. The compound is present until responses of a repeatable amplitude are achieved. Current amplitudes are measured at the peak of the responses, and effect of the compounds is calculated as the amplitude at compound equilibrium divided by the amplitude of the current evoked by the pulse just before the compound was included.
The following salt solutions are used: extracellular solution (mM): NaCl (140), KCl (4), CaCl2 (2), MgCl2 (4), HEPES (10, pH 7.4); intracellular solution (mM): KCl (120), KOH (31), MgCl2 (1.785), EGTA (10), HEPES (10, pH 7.2). In general, compounds for testing are dissolved in 50% DMSO at 500 fold the highest concentration used.
Similar findings are shown in FIG. 3 with the human ASIC1a stably transfected in CHO cells. FIG. 3A compares the dose-response relationship between Compound A and amiloride [determined by measuring the area under the curve of the response (total charge transfer) and normalized to the control response]. […] FIGS. 14A and 14B show similar results for Compounds J and K.

COc1ccc(F)cc1-c1cc2c(c3c1CCN(C)C3)NC(=O)/C2=N/O [Compound A, 5-(5-fluoro-2-methoxyphenyl)-6,7,8,9-tetrahydro-3-(hydroxyimino)-8-methyl-1H-pyrrolo[3,2-h]isoquinoline-2(3H)-one]
effect on acid-induced inward current, hASIC1a and hASIC3 co-expressed (heteromeric hASIC1a+3): effectively modulates the activity | effect on size of human ASIC1a pH-evoked response (area under the curve, total charge transfer, normalized to control) (hASIC1a; -60 mV, pH 6.8 from pH 7.4): reduce the human ASIC1a pH-evoked response in a dose-dependent manner | potency relative to amiloride (hASIC1a; human ASIC1a pH-evoked response): about 100 fold
